Molecules are shown by their SMILES.

This is an account of results in US7482345B2, “P38 kinase inhibiting agents” (priority 2005, dated 2009).

T1 sequence (P47811 whole entry): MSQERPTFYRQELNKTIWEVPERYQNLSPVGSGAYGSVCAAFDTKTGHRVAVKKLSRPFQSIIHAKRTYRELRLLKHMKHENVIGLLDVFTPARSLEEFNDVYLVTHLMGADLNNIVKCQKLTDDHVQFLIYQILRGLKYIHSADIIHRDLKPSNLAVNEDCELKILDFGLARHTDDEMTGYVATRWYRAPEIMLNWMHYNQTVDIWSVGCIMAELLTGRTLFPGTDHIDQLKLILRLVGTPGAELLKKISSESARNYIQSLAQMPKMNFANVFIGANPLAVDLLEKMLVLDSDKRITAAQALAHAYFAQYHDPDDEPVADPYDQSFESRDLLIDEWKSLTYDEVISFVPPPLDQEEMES

This assay concerns the target T1, Murine p38 (Mus musculus, UniProt P47811).
T1 construct: made in house; host or cells: Drosophila S2 cells (p38); E. coli (GST-ATF2)
Kind of assay: p38 kinase assay. It is filed as biochemical. Particulars: illustrative Examples; table does not say which of 'the above assays'. The method, then:
Murine p38 containing the FLAG epitope tag was expressed in Drosophila S2 cells under transcriptional control of a copper-inducible metallothionein promoter. Expression of recombinant p38 was induced by treating transfected cells with 1 mM CuSO4 for 4 hours. To generate active recombinant murine p38, CuSO4-treated S2 cells were stimulated 10 minutes prior to harvest with 400 mM NaCl, 2 mM Na3VO4, and 100 μg/L okadaic acid. Cell pellets were washed with phosphate-buffered saline, 2 mM Na3VO4, and lysed in 20 mM Tris HCl, pH 7.5, 120 mM NaCl, 1% Triton X-100, 2 mM EDTA, 20 mM NaF, 4 mM Na3VO4, 2 mM Prefabloc SC (Boehringer Mannheim). Cell lysates were centrifuged for 10 min at 13,000×g, and activated, recombinant murine p38 was immunoaffinity purified from the lysate by column chromatography through anti-FLAG M2 resin (Kodak) that had been equilibrated with lysis buffer. After loading the extract the resin was washed with 10 column volumes of lysis buffer, 10 column volumes buffer A (10 mM Tris HCl, pH 7.5, 500 mM NaCl, 20% glycerol) and 10 column volumes of buffer B (10 mM Tris HCl pH 7.5, 150 mM NaCl, 20% glycerol). The fusion protein was eluted in buffer B containing 100 μg/mL FLAG peptide (Kodak).
The N-terminal 115 amino acids of ATF-2 was expressed in E. coli as a fusion protein with glutathione-S-transferase. The fusion protein was purified over glutathione agarose according to standard procedures (Pharmacia).
p38 kinase assays were performed in a reaction volume of 100 μL in a 96-well plate, at 30° for […] under the following conditions: 25 mM Hepes, pH 7.4, 10 mMmgCl2, 20 mM β-glycerolphosphate, 2 mM DTT, 5 μM ATP, 10 μCi [γ-33P]-ATP and ˜2 μM GST-ATF2. Serial dilutions of compounds were added to each reaction in 2 μL DMSO. 2 μL of DMSO was added to the last row of each reaction plate as the no inhibitor control for each inhibitor titration. The reaction was terminated with an equal volume of a stop solution containing 100 mM EDTA and 15 mM sodium pyrophosphate. PVDF filter plates (MAIPNOB50, Millipore) were pre-wet with methanol and washed with the stop solution. 50 μL aliquots from a single reaction were applied to the filter under vacuum, and the filter was washed twice with 75 mM phosphoric acid. The filter plates were counted in a scintillation counter (Top Count, Packard) and the percent inhibition at each compound concentration is determined.
On to `COc1ccc(C(=O)N2CCCC2)cc1-c1c(=O)ccn2nc(Oc3ccc(F)cc3F)ccc12` [Example 4, 2-(2,4-difluorophenoxy)-5-[2-methoxy-5-(pyrrolidin-1-ylcarbonyl)phenyl]-6H-pyrido[1,2-b]pyridazin-6-one], for which it took 22 nM to reach half-maximal inhibition (IC50). That is a double-digit nanomolar value.
Then `CCc1ccc(C(=O)N2CCCC2)cc1-c1c(=O)ccn2nc(Oc3ccc(F)cc3F)ccc12` [Example 14, 2-(2,4-difluorophenoxy)-5-[2-ethyl-5-(pyrrolidin-1-ylcarbonyl)phenyl]-6H-pyrido[1,2-b]pyridazin-6-one], with 59 nM; and `O=c1ccn2nc(NCc3ccc(F)cc3F)ccc2c1-c1c(F)cccc1F` [Example 49], with 710 nM; and `O=c1ccn2cc(Sc3ccc(F)cc3F)ccc2c1-c1c(F)cccc1F` [Example 52, 1-(2,6-difluorophenyl)-7-[(2,4-difluorophenyl)thio]-2H-quinolizin-2-one], with 320 nM.
Take `O=c1ccn2cc(Cc3ccc(F)cc3F)ccc2c1-c1c(F)cccc1F` [Example 53, 7-(2,4-difluorobenzyl)-1-(2,6-difluorophenyl)-2H-quinolizin-2-one]: the IC50 came out at 93 nM.
